# Counter-ions that a name gives are not always drawn.
# Tested on: mucositis induced by acute radiation exposure of the cheek pouch
# Assay: Hamster cheek pouch model of radiation-induced oral mucositis, topical dosing, clinical scoring 0-5
# Type: in vivo
# Conditions: hamsters, 35 Gy on Day 0, 0.1 mL of 0.1 mg/mL aqueous solution topically three times a day for 22 days; for mucositis scores (clinical scoring 0-5) versus placebo control group: compared with solution without drug
# Description: Hamsters were randomly assigned to treatment groups with eight (8) animals per group. Each group was treated either with a drug solution or a control, water.
# Animals were dosed three times a day for 22 days. The first dose was applied on day —1. Either a solution of the drug or water alone was applied in a volume of 0.1 ml three times per day.
# Mucositis was induced by acute radiation exposure of the check pouch. A single dose of radiation (35 Gy/dose) was administered to all animals on Day 0. Prior to irradiation, animals were anesthetized with an intraperiotoneal injection of sodium pentobarbital (80 mg/kg) and the left buccal pouch was everted, fixed and isolated using a lead shield.
# Beginning on day 6 and continuing every other day up to day 28, the cheek pouch was photographed. On days that photographs were taken, prior to the first dosing of the day, the animals were anesthetized using an inhalation anesthetic and the left cheek pouch of each animal was rinsed vigorously with sterile water to remove residual food debris or foreign contamination and blotted dry with a gauze sponge. The appearance of the cheek pouch was scored visually by comparison to a validated photographic scale, ranging from 0 for normal to 5 for severe ulceration (clinical scoring). In descriptive terms, this scale is defined as follows: […]
# A score of 1-2 represents mild stage of the disease, whereas a score of 3-5 indicates moderate to severe mucositis.
Compound,"reduction in the number of animal days with scores of 3 or more, relative to the control group",mucositis scores (clinical scoring 0-5) versus placebo control group
CN(C)[C@@H]1C(O)=C(C(N)=O)C(=O)[C@@]2(O)C(O)=C3C(=O)c4c(O)cccc4[C@@](C)(O)[C@H]3C[C@@H]12 [tetracycline hydrochloride],more than 75%,Significantly lower scores
meclocycline sulfosalicylate,more than 75%,Significantly lower scores
